Data as given in patent publication US6875781B2, “Pyridines and uses thereof” (Cell Therapeutics, Inc., priority 2003, dated 2005).
pIC50: −log10 of the molar value.

Target: T1, LPAAT-β (Homo sapiens, UniProt O15120)
T1 construct: the full-length human LPAAT-β cDNA was amplified by PCR from the DNA template pCE9.LPAAT-β; poly-histidine tag (N); made in house; host or cells: Sf9 insect cells (baculovirus, pFastBac HTc); membrane fraction used
T1 sequence (O15120 24-278): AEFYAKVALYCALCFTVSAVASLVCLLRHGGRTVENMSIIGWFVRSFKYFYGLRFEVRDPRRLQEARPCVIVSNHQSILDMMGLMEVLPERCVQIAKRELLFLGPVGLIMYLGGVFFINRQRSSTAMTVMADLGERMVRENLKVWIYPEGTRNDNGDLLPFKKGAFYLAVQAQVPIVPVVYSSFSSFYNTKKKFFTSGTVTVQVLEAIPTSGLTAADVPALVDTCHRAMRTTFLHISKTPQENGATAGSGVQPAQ
Test: LPAAT-β cell-free assay
Assay type: biochemical
Details: Sf9 cell membrane overexpressing recombinant LPAAT-β
Source text: For the construction of Baculovirus expression vectors, the full-length human LPAAT-β cDNA was amplified by PCR from the DNA template pCE9.LPAAT-β (West et at., DNA Cell Biol. 16:691-701 (1997)) using the primers 5′-[…] ATGGAGCTGTGGCCGTCTC-3′ (olpb1F; SEQ ID NO:1) and 5′-CAGGCTCTAG ACTACTGGGCCGGCTGCAC-3′ (olpb1R; SEQ ID NO:2). The ˜870 bp fragment generated was reamplified by PCR using the primers 5′[…] TCCGAAGAAGATC-3′ (olpb2F; SEQ ID NO:3) and 5′-CAGGCTCTAGCTACTGGGC CGGCTGCAC-3′ (olpb1R; SEQ ID NO:2). The ˜890 bp fragment generated as then cleaved with Sal I and Xba I for insertion into pFastBac™ HTc vector (Life Technologies, Gaithersberg, Md.) between the Sal I and Xba I sites for the generation of the plasmid pFB.LPAAT-β. This plasmid was then transformed into E. coli DH10Bac™ (Life Technologies, Gaithersberg, Md.) for the generation of recombinant Bacmid DNA for transfection in HighFive (Invitrogen, San Diego, Calif.) or SF9 insect cells for the production of recombinant Baculovirus stocks using the protocol described in the Bac-to-Bac® Baculovirus Expression System (Life Technologies, Gaithersberg, Md.), a eukaryotic expression system for generating recombinant baculovirus through site-specific transposition in E. coli. Viral stocks harvested from the transfected cells can then be used to infect fresh insect cells for the subsequence expression of LPAAT-β fusion protein with a poly-histidine tag and a myc-epitope near its N-terminus. The membrane fraction from these Sf9 cells would be the source of LPAAT enzyme.
For the preparation of membranes from Sf9 Cells, all steps are performed on ice or at 4° C. Sf9 cell pellets (˜10^8 cells) were thawed and resuspended in 1-2 ml of buffer A (20 mM Hepes, pH 7.5, 1 mM DTT, 1 mM EDTA, 20% w/v glycerol, 1 mM Benzamidine, 1 μg/ml soybean trypsin inhibitor (SBTI), 1 μg/ml pepstatin A) w/o DTT but with 1 mM Pefabloc. The cells were lysed by sonication using a Branson Sonifier at output=2, duty cycle=2, 10 pulses each at 10 s. with the tip of small sonicator probe submerged but not touching the walls. DTT was then added to 1 mM from a 1 M stock. The samples were centrifuged at 1500 rpm for 5 min. The low speed supernatant was saved and centrifuged (TLA 100.3 rotor, polycarbonate tubes, 2 ml/tube or 1.5 ml/tube minimum) at 100000×g for 1 hr. The high speed pellet was resuspend in Buffer A with a probe sonicator (10 pulses @ output #2 and duty cycle 20%) as a source of LPAAT enzyme.
LPAAT-β catalyzes the transfer of an acyl group from a donor such as acyl-CoA to LPA. The transfer of the acyl group from acyl-CoA to LPA leads to the release of free CoA, which can be reacted with the thiol reagent, 5,5′-dithiobis(2-nitrobenzoic acid) (DTNB). The reaction between DTNB and the free sulfhydryl group from CoA generates a yellow-colored product, 3-carboxylato-4-nitrothiophenolate (CNP), that absorbs at 413 nm. LPAAT-β derived from Sf9 cell membrane overexpressing LPAAT-β were resuspended in HEPES saline buffer (20 mM HEPES pH 7.5, 150 mM NaCl), 1 mg/ml BSA and 72 μl aliquots were distributed into 96-well microtiter plates. 8 μl of compound of interest at 200 μM dissolved in 100% DMSO was added into each well. 20 μl of 1 mM 18:1-CoA and 1 mM sn-1-18:1 lysoPA was then added to each well to initiate the reaction and allowed to run at room temperature for 25 min. 100 μl of 1 mM DTNB in 100% ethanol was then added to each well to quench the reaction and for color development. The absorbance at 405 nm, measured using a spectrophotometer plate reader, is proportional to the activity of LPAAT-β in the sample. This colorimetric assay was used for the high throughput screening of LPAAT inhibitors.
The radiometric assay was carried out in Sf9 cell membrane overexpressing LPAAT-β resuspended in HEPES-saline buffer, pH 7.5, 1 mg/ml BSA, 1 mM EDTA and 200 μM [^14C]18:1-CoA and 200 μM sn-1-18:1 lysoPA. […]

| pIC50 | SMILES |
| --- | --- |
| 5.19 | COc1ccc(Cl)cc1-c1cc(N)cc(Nc2ccc(Cl)cc2)n1 [Example 4, 6-(5-Chloro-2-methoxy-phenyl)-N*2*-(4-chloro-phenyl)-pyridine-2,4-diamine] |
| 6.70 | COc1ccc(Cl)cc1-c1cc(Nc2ccc(C)cc2)cc(Cl)n1 [Example 1, [2-Chloro-6-(5-chloro-2-methoxy-phenyl)-pyridin-4-yl]-p-tolyl-amine] |
| 4.46 | COc1ccc(Cl)cc1-c1cc(Nc2ccc(C)cc2)cc(N)n1 [Example 6, 6-(5-Chloro-2-methoxy-phenyl)-N*4*-p-tolyl-pyridine-2,4-diamine] |
| 6.31 | CCOc1ccc(Cl)cc1-c1cc(N)nc(Nc2ccc(C)cc2)c1 [Example 10] |
| 6.59 | COc1ccc(Cl)cc1-c1cc(N)nc(Nc2ccc(C=O)cc2)c1 [Example 14, 4-[6-Amino-4-(5-chloro-2-methoxy-phenyl)-pyridin-2-ylamino]-benzaldehyde] |
| < 4.40 | COc1ccc(Cl)cc1-c1cc(Cl)cc(Nc2ccc(C)cc2)n1 [Example 2, [4-Cloro-6-(5-chloro-2-methoxy-phenyl)-pyridin-2-yl]-p-tolyl-amine] |
| 4.74 | COc1ccc(Cl)cc1-c1cc(Nc2ccc(Cl)cc2)cc(N)n1 [Example 7, 6-(5-Chloro-2-methoxy-phenyl)-N*4*-(4-chloro-phenyl)-pyridine-2,4-diamine] |

The next lines start with the molecule.

| SMILES | pIC50 |
| --- | --- |
| CCOc1ccc(Cl)cc1-c1cc(N)nc(Nc2ccc(C=O)cc2)c1 [Example 12, 4-[6-Amino-4-(5-chloro-2-ethoxy-phenyl)-pyridin-2-ylamino]-benzaldehyde] | 7.30 |
| CCOc1ccc(Cl)cc1-c1cc(N)nc(Nc2ccc(CO)cc2)c1 [Example 13, {4-[6-Amino-4-(5-chloro-2-ethoxy-phenyl)-pyridin-2-ylamino]-phenyl}-methanol] | 7.00 |
| COc1ccc(Cl)cc1-c1cc(N)nc(Nc2ccc(C)cc2)c1 [Example 9] | 6.62 |
| CCOc1ccc(Cl)cc1-c1cc(N)nc(Nc2ccc(Cl)cc2)c1 [Example 11, 4-(5-Chloro-2-ethoxy-phenyl)-N-(4-chloro-phenyl)-pyridine-2,6-diamine] | 7.30 |
| COc1ccc(Cl)cc1-c1cc(Nc2ccc(C)cc2)cc(NC(C)=O)n1 [Example 5, N-[6-(5-chloro-2-methoxy-phenyl)-4-p-tolylamino-pyridin-2-yl]-acetamide] | 4.47 |
| COc1ccc(Cl)cc1-c1cc(N)nc(Nc2ccc(Cl)cc2)c1 [Example 8, 4-(5-Chloro-2-methoxy-phenyl)-N-(4-chloro-phenyl)-pyridine-2,6-diamine] | 7.40 |
| COc1ccc(Cl)cc1-c1cc(N)cc(Nc2ccc(C)cc2)n1 [Example 3, 6-(5-Chloro-2-methoxy-phenyl)-N*2*-p-tolyl-pyridine-2,4-diamine] | 4.54 |
